Assay results from patent US20030134901A1, “Lipoxin compounds and their use in treating cell proliferative disorders” (priority 1993, published 2003).
One block for each compound: values may come before it.

Assays:
[1] = system: A549 cell-PMN costimulation; assay: Eicosanoid formation in A549 cell-PMN coincubations; assay type: cell-based, human; settings: A549 cells exposed 20 min before addition of PMN
Protocol: In coincubation experiments, confluent A549 cells were exposed to IL-1β (1 ng/ml, 24 h), washed in HBSS and treated with vehicle alone or ASA for 20 min and arachidonic acid ([…] for 60 seconds at 37° C. Coincubations were performed by adding PMN to A549 cell monolayers followed by costimulation with ionophore A23187 (5 μM) in 4 ml of HBSS for 30 min at 37° C.
For analysis of LXs (including LXs and 15-epi-LXs) from A549 cell-PMN, coincubations were carried out using either a Waters (Bondapak C18 ([…]) column eluted with an isocratic mobile phase MeOH/H2O/acetic acid (60:40:0.01; v/v/v) with a flow rate of 0.6 ml/min or an Altex Ultrasphere ODS column (5 μm, 10 ×25 cm) eluted with MeOH/H2O/acetic acid (65:35:0.01; v/v/v) at a flow of 3 ml/min. Peptidoleukotrienes (LTC4 and LTD4) eluted in the MeOH fractions from Sep-Pak cartridge extractions were resolved with a Beckman Ultrasphere-ODS column eluted with MeOH/H2O/acetic acid (65:35:0.01; v/v/v), pH 5.7, at 1 ml/min. […] The material beneath peaks absorbing at 300 nm were individually collected after RP-HPLC and analyzed by gas chromatography-mass spectrometry (GC-MS) employing a Hewlett-Packard 5890 GC series II equipped with a 5971A mass-selective quadrapole detector as in Clària, J. and Serhan, C. […]

A549 cells = assay: 15-HETE generation by IL-1β-treated A549 cells; assay type: cell-based, human
Protocol: FIG. 3 is a graph showing the relative chiralities of 15-HETE triggered by ASA. A549 cells (10^7 cells per flask) were exposed to IL-1β (1 ng/ml) for 24 h, treated with vehicle (0.1% vol/vol ethanol) (□) or ASA (▪) for 20 min and then incubated (30 min, 37° C.) in HBSS containing arachidonic acid (20 μM) and A23187 (5 μM). Products were chromatographed by RP-HPLC (as in FIG. 1B) and the region containing 15-HETE was collected, extracted with chloroform and treated with diazomethane. Chiral analysis was performed with a Bakerbond DNBPG (see Methods for details). Results are representative of two separate experiments showing similar results.
In incubations involving permeabilized A549 cells (prepared by a rapid freeze-thaw cycle), IL-1β-treated (1 ng/ml, 24 h) A549 cells (1.5×10^6 cells/ml) were pretreated for 20 min with either vehicle (0.1% EtOH), ASA (500 (M; used throughout), 5 (M 17-ODYA, an inhibitor of cytochrome P450, (Muerhoff A. S., et al. (1989) Prostaglandin and fatty acid ω and (ω-1)-oxidation in rabbit lung: acetylenic fatty acid mechanism-based inactivators as specific inhibitors. J Biol.Chem. 244: 749-756.), or […] Rev 5901 isomer, a 5-LO inhibitor, subjected to two cycles of rapid freezing in a dry ice-acetone bath and thawing to room temperature (full cycle <20 min), and incubated with arachidonic acid ([…] for 20 min at 37° C. in 4 ml of DPBS^2+. In experiments involving radiolabeled arachidonic acid, incubations were initiated with the addition of [^3H]-arachidonic acid (0.25 (Ci/ml) plus unlabeled arachidonic acid ([…] for 20 min at 37° C.
For time-course experiments involving the generation of 15-HETE from endogenous sources (see FIG. 2B), intact A549 cells were exposed to IL-1β (1 ng/ml) for up to 48 h and then treated with vehicle (containing 0.1% EtOH) or ASA for 20 min followed by addition of ionophore A23187 (5 μM) in 4 ml of HBSS for 30 min at 37° C.
The monohydroxy eicosanoids (i. e. 5-, 12- and 15-HETE) from A549 cells were analyzed using a Ultrasphere-ODS column (5 μm, 4.6 mm×25 cm) (Beckman Instruments, Fullerton, Calif.) was eluted with MeOH/H2O/acetic acid (65:35:0.01; v/v/v) as phase one (t0-20 min), and a linear gradient with MeOH/acetic acid (99.9:0.1, v/v) as phase two (20-45 min) at a flow rate of 1.0 ml/min. The R- and S-enantiomers of 15-HETE were resolved and identified using a chiral HPLC system similar to that reported by Hawkins et al. (1988). […] When indicated, generation of 15-HETE from endogenous sources was monitored by radioimmunoassay (RIA). […]

15-PGDH = target: T1, 15-PGDH (Homo sapiens, UniProt P15428); settings: 15-PGDH of HL-60 cells (Agins et al. 1987); cited from earlier work
T1 construct: 100,000 g supernatants prepared from PMA-treated HL-60 cells converted 15-HETE to 15-oxo-ETE; endogenous in cells; host or cells: HL-60 cells treated with PMA (16 nM, 24-72 h); freeze-thaw lysate, 100,000 g supernatant
T1 sequence (P15428 1-266): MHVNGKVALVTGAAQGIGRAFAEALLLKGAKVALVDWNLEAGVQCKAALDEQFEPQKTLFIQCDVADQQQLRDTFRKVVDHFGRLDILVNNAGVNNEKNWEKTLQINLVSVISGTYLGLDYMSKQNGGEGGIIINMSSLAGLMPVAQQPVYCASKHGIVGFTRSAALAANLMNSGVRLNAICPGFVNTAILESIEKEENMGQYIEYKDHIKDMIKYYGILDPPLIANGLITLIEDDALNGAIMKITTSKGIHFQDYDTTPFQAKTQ

HUVEC = assay: 3H-LTB4 binding to HUVEC; set-up: species or system human; settings: 3H-LTB4, n=3
Protocol: Cell cultures and differentiation. HL-60 cells were seeded in RPMI medium supplemented with 100 U/ml penicillin, 100 μg/ml streptomycin, and 10% fetal calf serum (Hyclone, Logan, Utah), incubated at 37° C. with 5% CO2 atmosphere in 250 ml flasks. Individual flasks containing ˜[…] next received dimethyl sulfoxide (DMSO) (1.12% v/v, 120 h) or retinoic acid (RA) (1 μM, 120 h) or phorbol myristate acetate (PMA) (20 nM, 48 h). Before performing binding assays, cells were washed twice in phosphate buffered saline (PBS), Ca^2+- and Mg^2+-free, enumerated and suspended at 20×10^6 cells/ml in Tris buffer (10 mM), pH 7.4 (Fiore, S. et al.(1992) J. Biol. Chem. 267:16168). Nitro blue tetrazolium reduction was performed to monitor induction of polymorphonuclear phenotype as in (Imaizumi, M. and Breitman, T. R. (1986) Blood 67:1273), and cell adherence was determined for induction of macrophage-like phenotype (Collins, S. J. (1987) Blood 70:1273). […]
Ligand binding. ^3H-LXA4 and ^3H-LTB4 binding was performed essentially as in Fiore, S. et al.(1992) J. Biol. Chem. 267:16168. […] The incubations were rapidly centrifuged (60 sec, 12,000 g) on silicon oil (d=1.028), and cell-associated radioactivity was determined by liquid scintillation counting (Wallac 1409, Pharmacia, Piscataway, N.J.). […]

[2] = target: T2, LXA4 specific binding sites of differentiated HL-60 cells (Homo sapiens, UniProt P25090); assay: 3H-LXA4 specific binding to differentiated HL-60 cells; settings: competition, competitor 300 nM where printed
T2 construct: endogenous in cells; host or cells: HL-60 cells differentiated with DMSO, retinoic acid or PMA; intact cells
T2 sequence (P25090 1-351): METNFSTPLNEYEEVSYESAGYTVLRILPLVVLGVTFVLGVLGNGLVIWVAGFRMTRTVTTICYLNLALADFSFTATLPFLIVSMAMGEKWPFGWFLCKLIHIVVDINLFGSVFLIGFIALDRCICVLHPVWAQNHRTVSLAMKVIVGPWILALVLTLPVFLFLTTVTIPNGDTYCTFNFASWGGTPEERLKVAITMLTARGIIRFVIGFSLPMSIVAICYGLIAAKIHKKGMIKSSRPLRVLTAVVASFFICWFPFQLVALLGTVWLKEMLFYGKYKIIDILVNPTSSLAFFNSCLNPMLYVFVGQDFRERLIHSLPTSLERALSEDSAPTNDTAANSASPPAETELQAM

[3] = pretreatment 20 min, 37° C., chiral HPLC

Structure (SMILES): CC(=O)Oc1ccccc1C(=O)O [ASA, acetylsalicylic acid]
- formation of LXs [1]: increase in the formation of LXs
- formation of pLTs (LTC4 plus LTD4) [1]: decrease in pLTs
- effect on formation of 15-HETE (A549 cells; permeabilized IL-1β-treated A549 cells, arachidonic acid 20 μM): marked increase
- formation of 15S-HETE (A549 cells; [3]): remained unaltered
- increase in the amounts of 15R-HETE (A549 cells; [3]): 3 fold

Structure (SMILES): CCCCC[C@H](O)/C=C/C=C\C/C=C\C/C=C\CCCC(=O)O [15-HETE, 15-hydroxyeicosatetraenoic acid]
- substrate efficiency compared to PGE2 (15-PGDH): 92%

- specific binding to HUVEC (HUVEC): did not specifically bind
Structure (SMILES): CCCCC/C=C\C[C@@H](O)/C=C/C=C/C=C\[C@@H](O)CCCC(=O)O [LTB4, leukotriene B4]
- displacement of 3H-LXA4 specific binding [2]: Neither LXB4, LTB4, nor trihydroxyheptanoic acid (methyl ester) (300 nM) were able to displace
